Measurements as given in patent US20050048596A1, “Assay for detecting changes in mitochondrial membrane permeability and method of using same” (priority 2003, published 2005).

Key:
MPT pore [1] = assay: Enzymatic assay (ADH/NADH oxidase/HRP/Amplex Red) of calcium-induced pyridine nucleotide release from isolated liver mitochondria, Resorufin fluorescence; type: biochemical, rat; settings: BA 20 μM; calcium 100 μM; isolated liver mitochondria 0.125 mg/ml protein; FIG. 5
Description: FIG. 5 illustrates the recording of fluorescence intensity following calcium additions to isolated liver mitochondria in the assay mixture. Controls; only calcium (100 μM) was added. BA; the same amount of calcium (100 μM) was added to mitochondria incubated in the presence of 20 μM Bongrekig acid.
In one preferred embodiment, the assay for pyridine nucleotides measurement may comprise several enzymatic reactions—cyclic and/or coupled—which use oxidized or reduced form of nicotinamide adenine dinucleotides (NAD^+, NADH, respectively) as substrate, thereby providing a detectable final product (FIG. 1). In the first step shown in FIG. 1, alcohol dehydrogenase (ADH) converts ethanol to acetaldehyde in the presence of NAD^+, which is released from mitochondria and reduced to NADH. In the next reaction NADH oxidase (Ox) oxidizes NADH back to NAD^+, and hydrogen peroxide (H2O2) is produced from water in the process. In the last reaction, horseradish peroxidase (HRP) produces a detectable signal in the presence of hydrogen peroxide. […]
Experiments with isolated liver mitochondria were carried out in the same medium as those without; however, no substrate was added, since respiring mitochondria produce superoxide (O2^−). […] Leakage of H2O2 into the medium is expected to give a increase in fluorescence intensity which is not due to the release of pyridine nucleotides from mitochondria. […]

MPT pore [2] = assay: Calcium-induced swelling of isolated liver mitochondria, light scattering at 540 nm; type: biochemical, rat; settings: BA 20 μM; calcium 100 μM; no enzymes in medium; FIG. 6
Text: FIG. 6 illustrates calcium-induced swelling of mitochondria isolated from whole liver. The swelling is detected by recording the light scattering of mitochondrial suspension at 540 nm. Experimental conditions are the same as described in FIG. 5, except no enzymes were present in the medium.
The opening of the MPT pore leads to osmotic swelling of mitochondria, which can be detected as decreased light scattering. […] However, a more significant and progressive decrease in light scattering starting at about 300 sec. following the initial calcium pulse occurred.
Male Wistar rats weighing about 300 g were used for isolation of rat liver mitochondria. For examination of calcium-induced release of NAD^+, 0.125 mg/ml of mitochondrial protein were used. The mitochondria were incubated in 2ml of the reaction buffer containing all compounds required for the assay.

## CO[C@H](C/C=C\C=C\CC/C=C/C[C@H](C)/C=C/C(=C\C(=O)O)CC(=O)O)/C(C)=C\C=C(/C)C(=O)O [BA, Bongkrekic acid]
MPT pore [1]
  increase in fluorescence following calcium addition (release of pyridine nucleotides): blocked
MPT pore [2]
  calcium-induced swelling of mitochondria (decrease in light scattering at 540 nm): inhibited
